Test results reported in patent publication US20170348349A1, “Modulation of Amyloid Beta Toxicity and Processing By Xenon Gas” (NOBLIS THERAPEUTICS, INC., priority 2016, published 2017).
Like-named read-outs stand apart in the source and are kept apart here.

Tests used:
[1] = molecular target: T1, Amyloid-beta protein (1-42) (Homo sapiens, UniProt P05067); assay: Amyloid-beta (1-42) aggregation under anaesthetic gas: electrophoresis/western blot of monomer, LMW and HMW bands; assay type: biochemical; details: Xenon (50%) in air balanced with 5% CO2, 37° C., 24 hours
T1 construct: Amyloid-beta protein (1-42) hydrochloride salt (Bachem AG, Switzerland); purchased Bachem AG, Switzerland
Procedure: For detection of monomer formation Amyloid-beta protein (1-42) hydrochloride salt (Bachem AG, Switzerland) stored at −80° C. was removed and placed on ice. 1,1,1,3,3,3-hexafluoro-2-propanol (HFIP) (Sigma-Aldrich, Poole, UK) was placed on ice in the hood and allow to cool.110 HFIP was added to 0.5 mg amyloid- ? to produce a final concentration of 1 mM. The HFIP plus amyloid-beta solution was mixed on the vortex to ensure no solid remained on the vial edges. The HFIP plus amyloid-beta solution was incubated at room temperature for 60 minutes with the vial closed. The solution was then placed on ice for 10 minutes. The HFIP plus amyloid-beta solution was aliquoted into non-siliconized micro-centrifuge tubes amyloid-beta1-42). […]
When required peptide film containing tubes were removed from the −80° C. freezer and placed on ice. […] The protein was produced as above and was analysed immediately this was termed 0 hours. […]
The treated samples were centrifuged at 14,000 rpm at 4° C. for 10 minutes. […] The bands were detected with horseradish peroxidase-linked Ig anti-rabbit antibody (concentration 1:1000) (New England Biolab, Hitchin, UK) and visualised with the enhanced chemiluminesence system (ECL, Amersham Biosciences, Little Chalfont, UK). The monomer, LMW and HMW bands were located using a protein ladder to determine the molecular mass and were then quantified by densitometry (Adobe Photoshop). […]

[2] = cited from earlier work

T1 sequence (P05067 672-713 limits assumed): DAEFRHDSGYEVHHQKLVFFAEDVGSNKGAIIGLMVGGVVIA

[Xe] [xenon]
Amyloid β aggregation (electrophoresis stain, FIG. 2A) [1]: reduces Amyloid β aggregation | safety ([2]; 12 healthy volunteers, xenon in increasing concentrations 10%, 20%, 30%, 40% (Peterson-Felix et al.)): Safety was reported | adverse events ([2]; six healthy male volunteers, 21% xenon for 20 minutes (Yagi et al.)): no adverse events | adverse events ([2]; ten healthy adults, xenon 25%, 30% and 35%, each for 5-minute intervals (Sclabassi et al.)): no adverse events
